Data: paper PMC5681660, “Reduced hepatitis B and D viral entry using clinically applied drugs as novel inhibitors of the bile acid transporter NTCP” (Scientific Reports, 2017)
Structures can show the parent of a compound that is named as a salt. Where two headings read alike, the source gives them in different places.

Key:
[1] = target: T1, human NTCP (Homo sapiens, UniProt Q14973); experiment: Screening taurocholate uptake assay (96-well, [14C]taurocholate, 10 µM drug)
T1 sequence (Q14973 1-349): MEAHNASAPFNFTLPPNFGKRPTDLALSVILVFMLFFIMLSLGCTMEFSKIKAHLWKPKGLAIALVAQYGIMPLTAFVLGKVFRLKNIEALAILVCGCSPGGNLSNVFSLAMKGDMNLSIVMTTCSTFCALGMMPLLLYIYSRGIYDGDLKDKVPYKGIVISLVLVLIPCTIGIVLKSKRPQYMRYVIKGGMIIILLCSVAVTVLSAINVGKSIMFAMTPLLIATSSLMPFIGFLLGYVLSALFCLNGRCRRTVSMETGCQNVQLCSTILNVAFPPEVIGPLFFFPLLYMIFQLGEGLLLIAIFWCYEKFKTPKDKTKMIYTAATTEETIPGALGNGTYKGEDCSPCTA

[2] = target: T1, human NTCP; experiment: Screening fluorescent competitive Myrcludex B-FITC binding assay (96-well, 10 µM drug)
[3] = Prestwick library screen, 10 µM drug, B-score of taurocholate uptake
[4] = combined ranking from functional and binding assay B-scores
[5] = Prestwick library screen, 10 µM drug, B-score of Myrcludex B-FITC binding
[6] = combined ranking from functional and binding screening assays
[7] = screen, 10 µM drug, taurocholate uptake
[8] = screen, 10 µM drug, Myrcludex B-FITC binding
[9] = Prestwick library screen, taurocholate uptake, 10 µM drug
[10] = ranking score beside the functional and binding assay B-scores of the screen
[11] = Prestwick library screen, Myrcludex B-FITC binding, 10 µM drug

CO[C@@]1(NC(=O)Cc2cccs2)C(=O)N2C(C(=O)O)=C(COC(N)=O)CS[C@@H]21 [Cefoxitin sodium salt]
B-score functional assay [1, 3]: 1.114
Ranking score [1, 4]: 868.493
B-score binding assay [2, 5]: 0.041

O=C(O)c1ccccc1C(=O)Nc1ccc(S(=O)(=O)Nc2nccs2)cc1 [Phthalylsulfathiazole]
B-score functional assay [1, 3]: 1.113
Ranking score [1, 4]: 1099.94
B-score binding assay [2, 5]: 1.374

CCC(=O)O[C@H]1CC[C@H]2[C@@H]3CCC4=CC(=O)CC[C@]4(C)[C@H]3CC[C@]12C [Testosterone propionate]
B-score functional assay [1]: -0.451
Ranking score [1]: 567.732
B-score binding assay [2]: 0.252

NC[C@@H]1O[C@H](O[C@H]2[C@@H](O)[C@H](O[C@@H]3[C@@H](O)[C@H](N)C[C@H](N)[C@H]3O[C@H]3O[C@H](CO)[C@@H](O)[C@H](O)[C@H]3N)O[C@@H]2CO)[C@H](N)[C@@H](O)[C@@H]1O [Paromomycin sulfate]
B-score functional assay [1, 3]: 0.247
Ranking score [1, 4]: 976.576
B-score binding assay [2, 5]: 1.613

Cc1[nH]c(=O)c(C#N)cc1-c1ccncc1 [Milrinone]
B-score functional assay [1, 3]: 0.094
Ranking score [1, 4]: 877.639
B-score binding assay [2, 5]: 0.945

O=C(NCCNCC(O)COc1ccc(O)cc1)N1CCOCC1 (centres unmarked) [Xamoterol hemifumarate]
B-score functional assay [1]: 0.875
Ranking score [1]: 564.879
B-score binding assay [2]: -0.721

O=C1NCCN1CCN1CCC(c2cn(-c3ccc(F)cc3)c3ccc(Cl)cc23)CC1 [Sertindole]
B-score functional assay [1, 3]: 0.957
Ranking score [1, 4]: 1028.08
B-score binding assay [2, 5]: 0.84

NCCCCCC(=O)O [Aminocaproic acid]
B-score functional assay [1, 3]: 1.656
Ranking score [1, 4]: 1108.16
B-score binding assay [2, 5]: 1.053

CCN(CC)CCOC(=O)c1ccc(N)cc1 [Procaine hydrochloride]
Ranking score [1, 6]: 459.439
B-score functional assay [1, 7]: -1.181
B-score binding assay [2, 8]: 0.574

CO/N=C(\C(=O)N[C@@H]1C(=O)N2C(C(=O)O)=C(COC(N)=O)CS[C@H]12)c1ccco1 [Cefuroxime sodium salt]
B-score functional assay [1, 9]: 0.233
Ranking score [1, 10]: 660.887
B-score binding assay [2, 11]: -0.123

Cc1onc(-c2c(F)cccc2Cl)c1C(=O)N[C@@H]1C(=O)N2[C@@H]1SC(C)(C)[C@@H]2C(=O)O [Flucloxacillin sodium]
B-score functional assay [1, 3]: 0.761
Ranking score [1, 4]: 1024.7
B-score binding assay [2, 5]: 1.029

Cl.O=C(OCC(O)CO)c1ccccc1Nc1ccnc2cc(Cl)ccc12 (centres unmarked) [Glafenine hydrochloride]
B-score functional assay [1, 3]: 0.341
Ranking score [1, 4]: 1037.91
B-score binding assay [2, 5]: 3.077

C=C[C@H]1CN2CC[C@H]1C[C@@H]2[C@@H](O)c1ccnc2ccc(OC)cc12.Cl.O [Quinidine hydrochloride monohydrate]
Ranking score [1, 10]: 834.825
B-score binding assay [2, 11]: -0.002

CC(=O)OCC(=O)NCCCOc1cccc(CN2CCCCC2)c1 [Roxatidine Acetate HCl]
Ranking score [1, 6]: 297.686
B-score functional assay [1, 7]: -2.305
B-score binding assay [2, 8]: 0.239

C[N+]1(C)[C@@H]2CC[C@H]1C[C@@H](OC(=O)C(CO)c1ccccc1)C2 (some centres unmarked) [Methylatropine nitrate]
Ranking score [1, 6]: 357.004
B-score functional assay [1, 7]: -0.076
B-score binding assay [2, 8]: -1.066

C[C@@H]1CC[C@H]2[C@@H](C)C(=O)O[C@@H]3O[C@@]4(C)CC[C@@H]1[C@]32OO4 [Artemisinin]
B-score functional assay [1, 9]: 0.234
Ranking score [1, 10]: 655.672
B-score binding assay [2, 11]: -0.138

O=C1c2c(O)ccc(O)c2C(=O)c2c(NCCNCCO)ccc(NCCNCCO)c21 [Mitoxantrone dihydrochloride]
B-score functional assay [1, 9]: 4.449
Ranking score [1, 10]: 807.326
B-score binding assay [2, 11]: -0.161

O=c1[nH]cc(F)c(=O)[nH]1 [5-fluorouracil]
Ranking score [1, 6]: 327.242
B-score functional assay [1, 7]: -0.016
B-score binding assay [2, 8]: -1.388

CC1(C)NC(=O)N(c2ccc([N+](=O)[O-])c(C(F)(F)F)c2)C1=O [Nilutamide]
B-score functional assay [1, 3]: 5.352
Ranking score [1, 4]: 1119.7
B-score binding assay [2, 5]: 0.756

CO[C@@]1(NC(=O)C2SC(=C(C(N)=O)C(=O)O)S2)C(=O)N2C(C(=O)O)=C(CSc3nnnn3C)CS[C@@H]21 (some centres unmarked) [Cefotetan]
B-score functional assay [1, 9]: 4.862
Ranking score [1, 10]: 655.496
B-score binding assay [2, 11]: -0.646

CCn1cc(C(=O)O)c(=O)c2cnc(N3CCCC3)nc21 [Piromidic acid]
B-score functional assay [1, 3]: 1.197
Ranking score [1, 4]: 874.684
B-score binding assay [2, 5]: 0.041

CCCN(CCC)CCc1cccc2c1CC(=O)N2 [Ropinirole HCl]
B-score functional assay [1, 9]: -0.072
Ranking score [1, 10]: 825.121
B-score binding assay [2, 11]: 2.082

CC(C)NCC(O)COc1cccc2[nH]ccc12 (centres unmarked) [Pindolol]
B-score functional assay [1, 9]: -0.046
Ranking score [1, 10]: 777.082
B-score binding assay [2, 11]: 0.992

Cl.Cl.Fc1ccc(C(OCCN2CCN(CCCc3ccccc3)CC2)c2ccc(F)cc2)cc1 [GBR 12909 dihydrochloride]
Ranking score [1, 6]: 416.575
B-score functional assay [1, 7]: -0.602
B-score binding assay [2, 8]: -0.172

NNCCc1ccccc1 [Phenelzine sulfate]
Ranking score [1, 6]: 418.784
B-score functional assay [1, 7]: -0.221
B-score binding assay [2, 8]: -0.533

C[C@]12CC[C@H]3[C@@H](CCC4=CC(=O)CC[C@@H]43)[C@@H]1CC[C@@H]2O [Nandrolone]
B-score functional assay [1]: 0.05
Ranking score [1]: 852.366
B-score binding assay [2]: 0.982

O=C(N/N=C/c1ccc([N+](=O)[O-])o1)c1ccc(O)cc1 [Nifuroxazide]
B-score functional assay [1, 3]: 2.774
Ranking score [1, 4]: 1088.47
B-score binding assay [2, 5]: 0.661

CC(NCCc1ccc(O)cc1)C(O)c1ccc(O)cc1 (centres unmarked) [Ritodrine hydrochloride]
B-score functional assay [1, 3]: 1
Ranking score [1, 4]: 1111.92
B-score binding assay [2, 5]: 1.66

NCC[C@H](O)C(=O)N[C@@H]1C[C@H](N)[C@@H](O[C@H]2O[C@H](CN)[C@@H](O)[C@H](O)[C@H]2O)[C@H](O)[C@H]1O[C@H]1O[C@H](CO)[C@@H](O)[C@H](N)[C@H]1O [Amikacin hydrate]
B-score functional assay [1, 3]: 1.395
Ranking score [1, 4]: 1074.44
B-score binding assay [2, 5]: 0.912

Nc1ccc(S(=O)(=O)Nc2ncccn2)cc1 [Sulfadiazine]
B-score functional assay [1, 3]: 0.878
Ranking score [1, 4]: 1074.81
B-score binding assay [2, 5]: 1.389

CCCCN(CCCC)CCC(O)c1cc2c(Cl)cc(Cl)cc2c2cc(C(F)(F)F)ccc12 (centres unmarked) [Halofantrine hydrochloride]
Ranking score [1, 6]: 393.07
B-score functional assay [1, 7]: 0.058
B-score binding assay [2, 8]: -1.143

C[C@]12CC[C@H](O)C[C@@H]1CC[C@@H]1[C@@H]2CC[C@]2(C)C(=O)CC[C@@H]12 [Epiandrosterone]
B-score functional assay [1]: 2.177
Ranking score [1]: 1232.82
B-score binding assay [2]: 2.961

CC1(C)O[C@@H]2C[C@H]3[C@@H]4C[C@H](F)C5=CC(=O)CC[C@]5(C)[C@H]4[C@@H](O)C[C@]3(C)[C@]2(C(=O)CO)O1 [Flurandrenolide]
Ranking score [1, 6]: 407.676
B-score functional assay [1, 7]: -0.782
B-score binding assay [2, 8]: -0.083

COc1nc(C)nc(Cl)c1N=C1NCCN1 [Moxonidine]
Ranking score [1, 6]: 427.083
B-score functional assay [1, 7]: -0.211
B-score binding assay [2, 8]: -0.494

NCC(CC(=O)O)c1ccc(Cl)cc1 (racemic) [Baclofen (R,S)]
B-score functional assay [1, 3]: 2.955
Ranking score [1, 4]: 1069.07
B-score binding assay [2, 5]: 0.531

Cn1c(=O)c2c(ncn2CCO)n(C)c1=O [Etofylline]
B-score functional assay [1, 9]: 0.319
Ranking score [1, 10]: 831.39
B-score binding assay [2, 11]: 0.258
